Measured values published in PMC6934184, “Selective DNA-PKcs inhibition extends the therapeutic index of localized radiotherapy and chemotherapy” (The Journal of Clinical Investigation, 2019).

Molecular target: T1, ALK (Homo sapiens, UniProt Q9UM73)
T1 construct: purchased Thermo Fisher Scientific (Life Technologies) SelectScreen
Assay: SelectScreen Z'LYTE
Format: biochemical
Procedure, shortened: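 Compound tested in SelectScreen activity assays, Z'LYTE for CSF1R, CDK1/cyclin B and MAP2K6 and Adapta for CAMK1. ATP for CAMK1 was listed as 10, and Km app was used for CSF1R. Results are expressed in percent.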

T1 sequence (Q9UM73 19-1620): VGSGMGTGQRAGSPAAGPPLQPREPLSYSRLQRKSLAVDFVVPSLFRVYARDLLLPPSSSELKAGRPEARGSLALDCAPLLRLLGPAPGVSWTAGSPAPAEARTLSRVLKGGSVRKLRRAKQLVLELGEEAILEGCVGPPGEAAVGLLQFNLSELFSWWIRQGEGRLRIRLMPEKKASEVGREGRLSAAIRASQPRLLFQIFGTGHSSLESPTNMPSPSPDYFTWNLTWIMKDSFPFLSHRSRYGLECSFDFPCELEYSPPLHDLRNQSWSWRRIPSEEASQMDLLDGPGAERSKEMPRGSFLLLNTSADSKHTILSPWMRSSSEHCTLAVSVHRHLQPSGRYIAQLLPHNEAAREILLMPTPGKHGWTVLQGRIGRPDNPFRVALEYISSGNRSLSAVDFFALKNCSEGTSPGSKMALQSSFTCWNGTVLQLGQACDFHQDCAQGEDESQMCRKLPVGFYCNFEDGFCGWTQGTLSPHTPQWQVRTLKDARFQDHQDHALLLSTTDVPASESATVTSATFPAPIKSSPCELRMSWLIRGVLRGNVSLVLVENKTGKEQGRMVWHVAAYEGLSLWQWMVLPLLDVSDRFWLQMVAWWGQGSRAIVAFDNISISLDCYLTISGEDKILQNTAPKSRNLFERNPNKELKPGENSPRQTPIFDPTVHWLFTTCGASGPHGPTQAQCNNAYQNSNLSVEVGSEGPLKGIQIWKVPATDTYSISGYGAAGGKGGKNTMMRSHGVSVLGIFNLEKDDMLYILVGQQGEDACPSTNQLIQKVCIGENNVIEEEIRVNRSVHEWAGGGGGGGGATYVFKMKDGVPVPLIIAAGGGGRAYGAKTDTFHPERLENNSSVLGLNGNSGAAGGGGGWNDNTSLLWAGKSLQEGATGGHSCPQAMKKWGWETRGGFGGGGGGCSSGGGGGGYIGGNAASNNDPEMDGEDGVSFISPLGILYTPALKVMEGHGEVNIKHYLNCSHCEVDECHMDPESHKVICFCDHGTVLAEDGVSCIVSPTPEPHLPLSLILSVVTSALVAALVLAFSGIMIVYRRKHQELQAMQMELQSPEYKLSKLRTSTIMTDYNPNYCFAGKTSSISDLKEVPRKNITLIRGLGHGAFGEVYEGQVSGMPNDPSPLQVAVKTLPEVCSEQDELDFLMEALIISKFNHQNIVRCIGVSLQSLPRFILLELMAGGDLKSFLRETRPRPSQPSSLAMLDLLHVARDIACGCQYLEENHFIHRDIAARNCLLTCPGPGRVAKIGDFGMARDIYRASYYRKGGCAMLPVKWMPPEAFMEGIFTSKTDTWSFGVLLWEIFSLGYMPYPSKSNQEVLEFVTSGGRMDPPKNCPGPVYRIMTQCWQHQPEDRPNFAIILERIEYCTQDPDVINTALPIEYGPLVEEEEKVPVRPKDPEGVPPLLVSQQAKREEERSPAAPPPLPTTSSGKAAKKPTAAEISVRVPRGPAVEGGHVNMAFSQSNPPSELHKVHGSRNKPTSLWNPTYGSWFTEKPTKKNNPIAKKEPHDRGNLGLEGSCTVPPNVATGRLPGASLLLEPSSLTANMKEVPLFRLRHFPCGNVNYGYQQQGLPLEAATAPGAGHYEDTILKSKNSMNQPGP

SMILES: CN(C(=O)CN1CCOCC1)c1ccc2sc3c(-c4cccc5c(=O)cc(N6CC7CCC(C6)O7)oc45)cccc3c2c1 [NU5455]
- inhibition at 1 µM: 17.3%
